Reference: patent US20260048062A1, “FUSED AMINO PYRIMIDINE COMPOUNDS FOR TREATMENT OF PSYCHOSIS AND PSYCHOTIC DISORDERS” (Ovid Therapeutics Inc., priority 2024, published 2026)

Legend:
KCC3 = target: T1, KCC3 (Homo sapiens, UniProt Q9UHW9); test: Tl+ flux assay, HEK-293 cells expressing KCC3; assay type: cell-based; conditions: read-out: concentration at which effects on KCC3 were seen
T1 construct: expressed in transfected cells; host or cells: HEK-293
T1 sequence (Q9UHW9 1-1150): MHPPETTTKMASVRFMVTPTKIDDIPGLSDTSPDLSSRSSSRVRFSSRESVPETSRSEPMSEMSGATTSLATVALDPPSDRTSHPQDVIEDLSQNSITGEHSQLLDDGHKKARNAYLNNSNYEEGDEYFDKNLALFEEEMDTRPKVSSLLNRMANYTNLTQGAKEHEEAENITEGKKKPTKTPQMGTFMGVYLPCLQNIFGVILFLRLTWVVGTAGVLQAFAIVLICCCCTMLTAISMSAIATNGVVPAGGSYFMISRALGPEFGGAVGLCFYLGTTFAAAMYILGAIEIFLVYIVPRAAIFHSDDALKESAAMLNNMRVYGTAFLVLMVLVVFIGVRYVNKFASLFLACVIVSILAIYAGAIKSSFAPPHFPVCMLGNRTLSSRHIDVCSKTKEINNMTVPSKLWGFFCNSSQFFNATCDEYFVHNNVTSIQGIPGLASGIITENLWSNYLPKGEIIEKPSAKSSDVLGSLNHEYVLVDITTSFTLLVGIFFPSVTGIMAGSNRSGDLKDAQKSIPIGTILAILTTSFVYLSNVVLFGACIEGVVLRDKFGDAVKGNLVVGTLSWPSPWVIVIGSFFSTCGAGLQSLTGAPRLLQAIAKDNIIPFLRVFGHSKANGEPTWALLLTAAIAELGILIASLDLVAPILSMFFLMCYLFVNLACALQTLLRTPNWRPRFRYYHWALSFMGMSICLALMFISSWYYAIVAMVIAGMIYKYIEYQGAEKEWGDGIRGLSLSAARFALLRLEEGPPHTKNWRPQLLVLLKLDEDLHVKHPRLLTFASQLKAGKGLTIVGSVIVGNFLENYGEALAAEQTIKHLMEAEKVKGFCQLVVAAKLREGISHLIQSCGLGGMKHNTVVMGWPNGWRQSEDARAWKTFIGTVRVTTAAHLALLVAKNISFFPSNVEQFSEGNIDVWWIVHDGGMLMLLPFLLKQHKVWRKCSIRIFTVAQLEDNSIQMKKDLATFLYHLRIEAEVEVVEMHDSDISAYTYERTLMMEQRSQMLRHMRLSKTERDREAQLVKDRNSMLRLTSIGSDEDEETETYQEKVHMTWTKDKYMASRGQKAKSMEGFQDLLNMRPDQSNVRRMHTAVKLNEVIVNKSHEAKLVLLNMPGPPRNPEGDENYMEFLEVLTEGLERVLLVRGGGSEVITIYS
Method: FLIPR TI Flux assay. HEK-293 cells were washed with HBSS, and then incubated with loading buffer containing TI sensitive fluorescent dye (https://www.moleculardevices.com), 20 μM bumetanide 20 μM ouabain and 2.5 mM probenecid for 1 h at room temperature (RT) under control conditions or with drugs in the dark using a FlexStation 3 microplate reader (Molecular Devices) and imaged […] for 30 min. Stimulus buffer was added containing 5 mM K^+/0.5 mM Tl^+ and cells were imaged every 1.5 over a 190 second time course The initial rate Tl^+ uptake (Relative Fluorescence Units (RFU) per second) was determined following addition of the stimulus buffer as outlined previously (Conway et al., 2017, supra) (Lee et al., 2022, supra).
Compared to KCC2, effects on KCC3, KCC4, and NKCC1 were only seen at concentrations more than 35-fold that of KCC2 (>100 μM) (FIG. 1G).

[1] = tested on: 18-20 Div hippocampal neurons; test: Gramicidin perforated patch clamp, EGABA in hippocampal neurons; assay type: cell-based, Sprague Dawley
Method: Neuronal Cultures. Hippocampal neurons were prepared from Sprague Dawley E18 embryos and plated at 450,000 per dish and maintained at 37° C. in a humidified 5% CO2 incubator for 10-25 days before experimentation (Lee et al., Nat. Neurosci. 14, 736-743 (2011)).
At this developmental stage, GABAAR receptor activation leads to hyperpolarization, a phenomenon critically dependent upon KCC2 (Kontou et al., J Biol Chem, 100364 (2021)).
Neuronal Patch clamp assays. Neuronal cell culture recordings were performed in bath saline at 34° C. For gramicidin perforated-patch experiments, pipettes contained (in mM): 140 KCl and 10 HEPES, pH 7.4 KOH. […] Bath saline contained the following (in mM): 140 NaCl, 2.5 KCl, 2.5 CaCl2, 2.5 MgCl2, 10 HEPES, and 11 glucose, pH 7.4 NaOH (Kontou et al., 2021, supra). All compound solutions were applied to cells using a three-barreled 700 μm pipe positioned just above the cell (Warner Instruments). […] 10 mV voltage-ramp protocols over 1-s periods were used to determine the reversal potentials of the leak-subtracted muscimol-activated GABAAR currents. All voltages from whole-cell experiments were corrected offline using a calculated liquid junction potential value (13.6 mV) in Clampex (Molecular Devices). For gramicidin perforated-patch experiments, intracellular Cl^− values were back-calculated using measured EGABA values and the Nernst equation: […]
Measurements were performed in the presence of bumetanide […] and tetrodotoxin (TTX; 300 nM) to limit the contributions of NKCC1 and activity dependent shifts in chloride levels, respectively (Lee et al., 2011, supra).

hippocampus = test: Neuronal cell death in the hippocampus, Compound A with diazepam; assay type: in vivo; conditions: mice, Compound A and diazepam vs diazepam alone

Compound: C[C@@H]1CN(c2nc3c(c(Nc4ccc(C5CCCCC5)cc4)n2)COC3)CCO1 [Compound A, (R)—N-(4-cyclohexylphenyl)-2-(2-methylmorpholino)-5,7-dihydrofuro[3,4-d]pyrimidin-4-amine]
- EC50 (KCC3): > 100 µM
- EGABA at 0 min ([1]; 300 nM group, before treatment, bumetanide and TTX present): −75±3.1 mV
- EGABA at 15 min ([1]; 300 nM, 15 min, bumetanide and TTX present): −85.1±4.2 mV
- reduction in Cl− ([1]; 300 nM, 15 min, from EGABA by Nernst equation): 2.2 ± 0.6 mM
- neuronal cell death in the hippocampus (hippocampus): significantly reduced
